Data: the supplement of paper PMC10307832

What was measured:
Test in all cases: relative viability (nuclei count vs DMSO), 5 days (fraction); higher = more cells survive
AZ628 + Crizotinib = compound: CC1=C(C=C(C=C1)NC(=O)C2=CC(=CC=C2)C(C)(C)C#N)NC3=CC4=C(C=C3)N=CN(C4=O)C [AZ628] + C[C@@H](Oc1cc(-c2cnn(C3CCNCC3)c2)cnc1N)c1c(Cl)ccc(F)c1Cl [Crizotinib] (partner 1 µM)
Method in brief: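 After 5 days of treatment, lung cancer cells in 1536-well plates were fixed and stained in a single step (final 0.05% Triton X-100, 1% formaldehyde, 1 ug/ml Hoechst) and their nuclei counted on 4× images. Treatment had been applied by pin tool the day after seeding as one drug alone or as a fixed anchor-drug dose with five library-drug doses (not always all listed) in √10 steps. Relative viability is the nuclei count of treated wells divided by that of vehicle wells, and values are medians of duplicate plates.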

Darinaparsin = compound: C[As](C)SC[C@H](NC(=O)CC[C@H](N)C(=O)O)C(=O)NCC(=O)O [Darinaparsin]
Method in brief: (§1)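 Cells of lung cancer lines were placed in 1536-well plates and kept overnight at 37 °C. Pinning then delivered five library-drug doses (not always all listed), spaced by √10, onto plates anchored with vehicle, and the cells were left 5 days without changing medium. One step fixed, permeabilised and stained them with Hoechst, and MetaXpress counted nuclei in 4× images. Viability, as a median over plates, is treated-well nuclei divided by vehicle-well nuclei, with acceptance only at control CV below 25% and at least one doubling.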

QS11 = compound: C1CC2=C(C1)C=C(C=C2)OC3=NC(=C4C(=N3)N(C=N4)CC5=CC=C(C=C5)C6=CC=CC=C6)N[C@@H](CC7=CC=CC=C7)CO [QS11]
Method in brief: as §1

AZ628 = compound: CC1=C(C=C(C=C1)NC(=O)C2=CC(=CC=C2)C(C)(C)C#N)NC3=CC4=C(C=C3)N=CN(C4=O)C [AZ628]
Method in brief: as §1

Row | Cell Line | relative viability (AZ628 + Crizotinib; first compound 0.08 µM) | relative viability (AZ628 + Crizotinib; first compound 0.253 µM) | relative viability (AZ628 + Crizotinib; first compound 0.8 µM) | relative viability (AZ628 + Crizotinib; first compound 2.53 µM) | relative viability (AZ628 + Crizotinib; first compound 8 µM) | relative viability (Darinaparsin; 0.08 µM) | relative viability (Darinaparsin; 0.8 µM) | relative viability (Darinaparsin; 2.53 µM) | relative viability (Darinaparsin; 8 µM) | relative viability (QS11; 0.08 µM) | relative viability (QS11; 0.253 µM) | relative viability (QS11; 0.8 µM) | relative viability (QS11; 2.53 µM) | relative viability (QS11; 8 µM) | relative viability (AZ628; 0.08 µM) | relative viability (AZ628; 0.253 µM) | relative viability (AZ628; 0.8 µM) | relative viability (AZ628; 2.53 µM) | relative viability (AZ628; 8 µM)
1 | NCI-H1975 | 0.957 | 1.02 | 0.896 | 0.927 | 0.627 | 0.992 | 1.01 | 0.906 | 1.05 | 0.954 | 0.881 | 1.04 | 1.23 | 1.34 | 0.927 | 0.85 | 0.889 | 0.94 | 0.768
2 | BEN | 0.98 | 0.881 | 0.698 | 0.966 | 0.825 | 1.08 | 1.03 | 0.92 | 1.3 | 0.821 | 1.03 | 1.13 | 1.1 | 1.25 | 1.11 | 0.838 | 0.899 | 1.01 | 0.843
3 | NCI-H1437 | 0.869 | 0.822 | 0.899 | 0.995 | 0.932 | 1.08 | 1.02 | 0.973 | 1.21 | 0.965 | 1.02 | 0.752 | 0.901 | 0.929 | 0.988 | 0.938 | 0.858 | 1.01 | 1.01
4 | NCI-H1734 | 0.561 | 0.574 | 0.568 | 0.621 | 0.381 | 1.06 | 0.993 | 0.971 | 1.16 | 0.99 | 1.01 | 0.945 | 0.874 | 0.725 | 1.08 | 0.974 | 0.919 | 0.913 | 0.514
5 | NCI-H596 | 0.903 | 1.18 | 1.08 | 1.04 | 1.16 | 0.937 | 1.05 | 0.938 | 1.05 | 0.931 | 0.833 | 1.15 | 0.969 | 1.09 | 1.05 | 1.03 | 1.1 | 1.06 | 1.01
6 | LOU-NH91 | 0.721 | 0.755 | 0.755 | 0.731 | 0.606 | 1.03 | 0.921 | 0.954 | 1.02 | 0.979 | 0.93 | 0.78 | 0.98 | 0.966 | 0.971 | 0.926 | 0.958 | 0.963 | 0.797
7 | NCI-H2342 |  |  |  |  |  | 0.953 | 0.888 | 0.939 | 1.08 | 0.888 | 1.02 | 1.07 | 0.998 | 0.998 | 1.1 | 0.898 | 1.02 | 0.935 | 0.995
8 | NCI-H522 |  |  |  |  |  | 0.969 | 0.992 | 0.972 | 1.07 | 0.872 | 0.96 | 0.934 | 0.944 | 0.875 | 0.922 | 0.827 | 0.755 | 1.11 | 0.815
9 | SK-MES-1 | 0.953 | 0.93 | 1.08 | 1.15 | 0.882 | 1.15 | 1.05 | 0.948 | 1.26 | 1.12 | 0.952 | 0.941 | 0.95 | 0.946 | 0.945 | 0.99 | 0.923 | 0.92 | 0.595
10 | UMC-11 | 0.578 | 0.572 | 0.684 | 0.542 | 0.781 | 0.997 | 0.949 | 0.926 | 1.03 | 0.952 | 0.979 | 0.992 | 1.17 | 1.22 | 1.07 | 0.974 | 0.992 | 0.943 | 1.08
11 | LK-2 | 0.192 | 0.197 | 0.244 | 0.203 | 0.224 | 1.16 | 0.83 | 0.982 | 1.26 | 0.99 | 1.21 | 1.09 | 0.956 | 1.3 | 1.29 | 0.983 | 0.977 | 0.857 | 0.467
12 | CAL-12T | 0.871 |  | 0.565 | 0.622 | 0.361 | 1.15 | 1 | 0.985 | 1.11 | 0.96 | 0.986 | 0.96 | 0.908 | 0.873 | 0.987 | 0.831 | 0.81 | 0.806 | 0.685
13 | PC-3 [JPC-3] | 0.941 | 1.04 | 1 | 1.06 | 0.922 | 1.14 | 1.06 | 1.05 | 1.08 | 0.965 | 1.04 | 0.956 | 1.04 | 1.02 | 1.05 | 1.06 | 1.16 | 1.11 | 0.951
14 | NCI-H1651 | 0.864 | 0.87 | 0.863 | 0.902 | 0.925 | 1.15 | 1 | 0.942 | 1.18 | 0.906 | 1.01 | 0.857 | 0.988 | 0.899 | 0.986 | 1.01 | 0.986 | 1.08 | 1.12
15 | NCI-H650 | 0.771 | 0.73 | 0.553 | 0.68 | 0.599 | 0.988 | 1.01 | 0.967 | 0.947 | 0.841 | 0.908 | 1.01 | 0.932 | 0.89 | 1.13 | 1.05 | 1.3 | 1.1 | 1.26
16 | HOP-62 | 1.06 | 0.834 | 0.926 | 1.16 | 0.412 | 1.07 | 1.08 | 0.95 | 1.08 | 1.06 | 1.09 | 0.867 | 0.922 | 0.88 | 1.07 | 1.07 | 0.937 | 1.09 | 0.573
17 | LC-2-ad | 0.503 | 0.457 | 0.448 | 0.44 | 0.505 | 1.06 | 0.996 | 1.01 | 1.2 | 1.01 | 1.05 | 0.808 | 0.972 | 0.955 | 1.07 | 0.911 | 0.88 | 0.928 | 0.768
